Experimental data as given in patent US20230248722A1, “CLOFAZIMINE COMPOSITION AND METHOD FOR THE TREATMENT OR PROPHYLAXIS OF VIRAL INFECTIONS” (priority 2020, published 2023).

Tested on: SARS-CoV-2
Format: cell-based
Conditions: in vitro; 2.5 μM (or ~1.2 μg clofazimine/ml)

CC(C)/N=c1\cc2n(-c3ccc(Cl)cc3)c3ccccc3nc-2cc1Nc1ccc(Cl)cc1 [clofazimine, N,5-bis(4-chlorophenyl)-3-propan-2-yliminophenazin-2-amine]
reduce or eliminate viral replication: 40%
